In patent publication US20040002545A1, “Thiazole derivatives of 2-methoxyimino-2-(pyridinyloxymethyl)-phenyl-acetamides useful as fungicides” (priority 2003, published 2004):

What was measured:
Assay type in all cases: in vivo
Erysiphe graminis—ERYSGT = assay: Wheat powdery mildew greenhouse test, curative and protectant; set-up: scale not given here; conditions: for ERYSGT 3DC: 3DC (curative); for ERYSGT 7DP: 7DP (protectant)
Text: (§1) Pathogen propagation and host inoculation. Plants were inoculated with various pathogens 1-4 days before compound application (curative tests) and 1-7 days after compound application (protectant tests). For all wheat trials, compounds were applied at growth stage 1.2, when the second leaf was expanded to about ½ of its final size (12 days after seeds were first watered). Information on the growth stages of other plant species at the time compound application and on the propagation and inoculation procedures associated with each pathogen is given below.
ERYSGT: Wheat seedlings were infected with fresh spores from the obligate pathogen ERYSGT by shaking heavily infected wheat plants over them. Plants that had been dusted with ERYSGT spores were incubated in the greenhouse at 22° C. until disease symptoms had fully developed (usually 7 days).

Septoria nodorum—LEPTNO = assay: Wheat glume blotch greenhouse test, curative and protectant; set-up: scale not given here; conditions: for LEPTNO 3DC: 3DC (curative); for LEPTNO 7DP: 7DP (protectant)
Text: as §1
(§2) LEPTNO: Fresh inoculum was prepared by streaking PDA plates with spore exudates from an older plate using a sterile spatula. The plates were incubated at 18° C. under black lights and typically produced large quantities of spores in pink exudate in 6-7 days. A small amount of tap water was poured onto several plates and spores were collected by scraping the exudates off the PDA surface into the water. The spore solutions were combined in a large beaker, diluted with 200-300 ml of water and filtered through a 180 u mesh screen. The spore concentration was determined using a hemacytometer and water was added to obtain a final concentration of 10^7 spores/ml. Approximately 3 large drops of Tween 20 were added for each 100 ml of volume and the spore solution was sprayed to run-off on wheat seedlings. Inoculated plants were placed in a 20° C. dew chamber overnight, then moved to a 20° C. greenhouse where they were continually misted (12 seconds of mist every minute) until disease symptoms were fully developed (8-10 days).

[1] = test system: Puccinia recondita—PUCCRT; assay: Wheat brown rust greenhouse test, curative and protectant; conditions: for PUCCRT 3DC: 3DC (curative); for PUCCRT 7DP: 7DP (protectant)
Text: as §1
PUCCRT: Spores of the obligate pathogen PUCCRT were collected from infected plants with a vacuum apparatus and stored at 4° C. Approximately 0.1 g of fresh spores (stored at 4° C. for less than 30 days) was mixed with several drops of Tween 20. The thick spore paste was diluted to 100 ml with water and sprayed to run-off on wheat seed seedlings. Plants inoculated with PUCCRT were kept in a 20° C. dew chamber overnight and then transferred to a 20° C. growth chamber where symptoms developed in 8-9 days.

Septoria tritici—SEPTTR = assay: Wheat leaf blotch greenhouse test, curative and protectant; set-up: scale not given here; conditions: for SEPTTR 3DC: 3DC (curative); for SEPTTR 7DP: 7DP (protectant)
Text: as §1
SEPTTR: Fresh inoculum is prepared in a manner similar to that described for LEPTNO. In this case, a brownish layer of spores covers the entire surface of the PDA plate and only a few plates are needed to obtain a large number of spores. After incubation overnight in the 20° C. dew chamber, inoculated plants were continually misted for 3 days in a 20° C. greenhouse, then grown at 20° C. without mist until disease symptoms had fully developed (usually about 10 days).
as §2

Compound: 2-[[[3-chloro-5-[5-[3-methylisothiazoly]]-2-pyridinyl]-oxy]methyl]-alpha-(methoxyimino)-N-methylbenzeneacetamide [Compound 1]
- ERYSGT 3DC (Erysiphe graminis—ERYSGT; rate 15.5 g ai/ha): 88
- ERYSGT 7DP (Erysiphe graminis—ERYSGT; rate 15.5 g ai/ha): 51
- ERYSGT 3DC (Erysiphe graminis—ERYSGT; rate 31.3 g ai/ha): 92
- ERYSGT 7DP (Erysiphe graminis—ERYSGT; rate 31.3 g ai/ha): 45
- ERYSGT 3DC (Erysiphe graminis—ERYSGT; rate 62.5 g ai/ha): 94
- ERYSGT 7DP (Erysiphe graminis—ERYSGT; rate 62.5 g ai/ha): 88
- ERYSGT 3DC (Erysiphe graminis—ERYSGT; rate 125 g ai/ha): 97
- ERYSGT 7DP (Erysiphe graminis—ERYSGT; rate 125 g ai/ha): 100
- LEPTNO 3DC (Septoria nodorum—LEPTNO; rate 15.5 g ai/ha): 58
- LEPTNO 7DP (Septoria nodorum—LEPTNO; rate 15.5 g ai/ha): 46
- LEPTNO 3DC (Septoria nodorum—LEPTNO; rate 31.3 g ai/ha): 60
- LEPTNO 7DP (Septoria nodorum—LEPTNO; rate 31.3 g ai/ha): 50
- LEPTNO 3DC (Septoria nodorum—LEPTNO; rate 62.5 g ai/ha): 53
- LEPTNO 7DP (Septoria nodorum—LEPTNO; rate 62.5 g ai/ha): 95
- LEPTNO 3DC (Septoria nodorum—LEPTNO; rate 125 g ai/ha): 71
- LEPTNO 7DP (Septoria nodorum—LEPTNO; rate 125 g ai/ha): 98
- PUCCRT 3DC ([1]; rate 15.5 g ai/ha): 93
- PUCCRT 7DP ([1]; rate 15.5 g ai/ha): 80
- PUCCRT 3DC ([1]; rate 31.3 g ai/ha): 99
- PUCCRT 7DP ([1]; rate 31.3 g ai/ha): 94
- PUCCRT 3DC ([1]; rate 62.5 g ai/ha): 100
- PUCCRT 7DP ([1]; rate 62.5 g ai/ha): 100
- PUCCRT 3DC ([1]; rate 125 g ai/ha): 100
- PUCCRT 7DP ([1]; rate 125 g ai/ha): 100
- SEPTTR 3DC (Septoria tritici—SEPTTR; rate 15.5 g ai/ha): 22
- SEPTTR 7DP (Septoria tritici—SEPTTR; rate 15.5 g ai/ha): 53
- SEPTTR 3DC (Septoria tritici—SEPTTR; rate 31.3 g ai/ha): 59
- SEPTTR 7DP (Septoria tritici—SEPTTR; rate 31.3 g ai/ha): 88
- SEPTTR 3DC (Septoria tritici—SEPTTR; rate 62.5 g ai/ha): 85
- SEPTTR 7DP (Septoria tritici—SEPTTR; rate 62.5 g ai/ha): 76
- SEPTTR 3DC (Septoria tritici—SEPTTR; rate 125 g ai/ha): 99
- SEPTTR 7DP (Septoria tritici—SEPTTR; rate 125 g ai/ha): 91

Compound: CNC(=O)C(=NOC)c1ccccc1COc1ncc(-c2snc(C)c2Br)cc1C [Compound 2, 2-[[[3-methyl-5-[5-[4-bromo-3-methylisothiazolyl]]-2-pyridinyl]-oxy]methyl]-alpha-(methoxyimino)-N-methylbenzeneacetamide]
- LEPTNO 3DC (Septoria nodorum—LEPTNO; rate 15.5 g ai/ha): 65
- LEPTNO 7DP (Septoria nodorum—LEPTNO; rate 15.5 g ai/ha): 65
- LEPTNO 3DC (Septoria nodorum—LEPTNO; rate 31.3 g ai/ha): 73
- LEPTNO 7DP (Septoria nodorum—LEPTNO; rate 31.3 g ai/ha): 79
- LEPTNO 3DC (Septoria nodorum—LEPTNO; rate 62.5 g ai/ha): 47
- LEPTNO 7DP (Septoria nodorum—LEPTNO; rate 62.5 g ai/ha): 84
- LEPTNO 3DC (Septoria nodorum—LEPTNO; rate 125 g ai/ha): 67
- LEPTNO 7DP (Septoria nodorum—LEPTNO; rate 125 g ai/ha): 98
- PUCCRT 3DC ([1]; rate 15.5 g ai/ha): 50
- PUCCRT 7DP ([1]; rate 15.5 g ai/ha): 100
- PUCCRT 3DC ([1]; rate 31.3 g ai/ha): 63
- PUCCRT 7DP ([1]; rate 31.3 g ai/ha): 100
- PUCCRT 3DC ([1]; rate 62.5 g ai/ha): 93
- PUCCRT 7DP ([1]; rate 62.5 g ai/ha): 100
- PUCCRT 3DC ([1]; rate 125 g ai/ha): 93
- PUCCRT 7DP ([1]; rate 125 g ai/ha): 100
- SEPTTR 3DC (Septoria tritici—SEPTTR; rate 15.5 g ai/ha): 97
- SEPTTR 7DP (Septoria tritici—SEPTTR; rate 15.5 g ai/ha): 85
- SEPTTR 3DC (Septoria tritici—SEPTTR; rate 31.3 g ai/ha): 83
- SEPTTR 7DP (Septoria tritici—SEPTTR; rate 31.3 g ai/ha): 85
- SEPTTR 3DC (Septoria tritici—SEPTTR; rate 62.5 g ai/ha): 90
- SEPTTR 7DP (Septoria tritici—SEPTTR; rate 62.5 g ai/ha): 96
- SEPTTR 3DC (Septoria tritici—SEPTTR; rate 125 g ai/ha): 95
- SEPTTR 7DP (Septoria tritici—SEPTTR; rate 125 g ai/ha): 97
